Measured values as given in patent publication US11168364B2, “Method and system for sequencing nucleic acids” (priority 2016, dated 2021).
Blank lines part the entries; values can stand above or below the compound they belong to.

Biological target: T1, Bsu DNA polymerase large fragment / primed template nucleic acid (Bacillus subtilis, UniProt O34996)
T1 construct: 350 U/ml Bsu DNA polymerase large fragment
T1 sequence (O34996 297-880 limits assumed): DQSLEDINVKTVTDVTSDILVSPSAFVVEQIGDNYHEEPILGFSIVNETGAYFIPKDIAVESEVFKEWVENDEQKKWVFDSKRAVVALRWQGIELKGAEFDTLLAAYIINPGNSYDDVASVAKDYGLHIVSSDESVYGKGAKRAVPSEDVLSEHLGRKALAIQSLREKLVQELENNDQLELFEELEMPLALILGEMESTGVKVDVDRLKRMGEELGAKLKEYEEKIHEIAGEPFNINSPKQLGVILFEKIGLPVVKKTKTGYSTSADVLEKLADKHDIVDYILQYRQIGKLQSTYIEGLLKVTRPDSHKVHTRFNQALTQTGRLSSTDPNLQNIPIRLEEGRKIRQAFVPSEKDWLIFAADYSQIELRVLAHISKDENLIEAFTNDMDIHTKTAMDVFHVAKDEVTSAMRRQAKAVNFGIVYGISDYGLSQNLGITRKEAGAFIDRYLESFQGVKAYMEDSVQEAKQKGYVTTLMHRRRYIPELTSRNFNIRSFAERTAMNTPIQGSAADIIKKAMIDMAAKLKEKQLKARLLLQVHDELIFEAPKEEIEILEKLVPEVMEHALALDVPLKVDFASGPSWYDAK
Assay: Biolayer interferometry of polymerase binding to immobilized primed template with cognate or non-cognate nucleotide, salt titration (Example 19)
Details: for Ternary Complex Signal (Δλ, nm): dCTP (cognate); for Binary Complex Signal (Δλ, nm): dGTP (non-cognate)
Source text: A FORTEBIO® (Menlo Park, Calif.) OCTET® instrument employing biolayer interferometry to measure binding reactions at the surface of a fiber optic tip was used in a multiwell plate format to investigate differential stability of binary and ternary complexes. Template strands biotinylated at their 5′-ends were used to immobilize the primed template nucleic acid onto fiber optic tips functionalized with streptavidin (SA) according to standard procedures. […] Tips were first equilibrated in a Tris-buffered solution containing 30 mM Tris-HCl (pH 8.0), and 0.1 mM EDTA before commencing the cycling protocol. Independent binding reactions for the two test nucleotides (i.e., cognate and non-cognate nucleotides) were carried out in the presence of concentrations of NaCl, KCl, or potassium glutamate that varied from 50 mM to 500 mM. […] In all instances, the reaction mixture used during the examination step contained Tris-HCl (pH 8.0), 0.01% Tween-20, 100 μg/ml BSA, 2 mM NiSO4, 350 U/ml Bsu DNA polymerase large fragment; and one of the nucleotides at a concentration of 100 μM (dCTP was used as a cognate nucleotide, and dGTP was used as a non-cognate nucleotide). Following each examination step, tips were exposed to a buffer containing 30 mM Tris-HCl (pH 8.0), 500 mM KCl, 2 mM EDTA and 0.05% Tween-20 for 20 seconds to strip enzyme complexes from the primed template nucleic acid. The stripping step was followed by a 15 second exposure to examination buffer without enzyme, dNTP or divalent cations to regenerate tips for the next cycle of examination. When using a single contacting step to effect binding of polymerase and nucleotide to the primed template nucleic acid, the binding step was 45 seconds long, with binding interactions being monitored continuously. This was accomplished by contacting the primed template nucleic acid with a single solution that included the polymerase and test nucleotide. Results from interferometry monitoring were analyzed to identify formation of ternary complexes (i.e., identifying cognate nucleotide) or binary complexes (i.e., identifying non-cognate nucleotide).

Fold Enhancement (Ternary/Binary) (Potassium glutamate 50 mM): 1.05
Ternary Complex Signal (Δλ, nm) (Potassium glutamate 50 mM): 1.67 nm
Binary Complex Signal (Δλ, nm) (Potassium glutamate 50 mM): 1.59 nm
Fold Enhancement (Ternary/Binary) (Potassium glutamate 75 mM): 1.01
Ternary Complex Signal (Δλ, nm) (Potassium glutamate 75 mM): 1.69 nm
Binary Complex Signal (Δλ, nm) (Potassium glutamate 75 mM): 1.68 nm
Fold Enhancement (Ternary/Binary) (Potassium glutamate 100 mM): 1.02
Ternary Complex Signal (Δλ, nm) (Potassium glutamate 100 mM): 1.67 nm
Binary Complex Signal (Δλ, nm) (Potassium glutamate 100 mM): 1.64 nm
Fold Enhancement (Ternary/Binary) (Potassium glutamate 125 mM): 1.05
Ternary Complex Signal (Δλ, nm) (Potassium glutamate 125 mM): 1.65 nm
Binary Complex Signal (Δλ, nm) (Potassium glutamate 125 mM): 1.57 nm
Fold Enhancement (Ternary/Binary) (Potassium glutamate 150 mM): 1.07
Ternary Complex Signal (Δλ, nm) (Potassium glutamate 150 mM): 1.62 nm
Binary Complex Signal (Δλ, nm) (Potassium glutamate 150 mM): 1.51 nm
Fold Enhancement (Ternary/Binary) (Potassium glutamate 175 mM): 1.08
Ternary Complex Signal (Δλ, nm) (Potassium glutamate 175 mM): 1.56 nm
Binary Complex Signal (Δλ, nm) (Potassium glutamate 175 mM): 1.44 nm
Fold Enhancement (Ternary/Binary) (Potassium glutamate 200 mM): 1.07
Ternary Complex Signal (Δλ, nm) (Potassium glutamate 200 mM): 1.51 nm
Binary Complex Signal (Δλ, nm) (Potassium glutamate 200 mM): 1.40 nm
Fold Enhancement (Ternary/Binary) (Potassium glutamate 225 mM): 1.11
Ternary Complex Signal (Δλ, nm) (Potassium glutamate 225 mM): 1.53 nm
Binary Complex Signal (Δλ, nm) (Potassium glutamate 225 mM): 1.38 nm
Fold Enhancement (Ternary/Binary) (Potassium glutamate 250 mM): 1.17
Ternary Complex Signal (Δλ, nm) (Potassium glutamate 250 mM): 1.48 nm
Binary Complex Signal (Δλ, nm) (Potassium glutamate 250 mM): 1.27 nm
Fold Enhancement (Ternary/Binary) (Potassium glutamate 275 mM): 1.22
Ternary Complex Signal (Δλ, nm) (Potassium glutamate 275 mM): 1.52 nm
Binary Complex Signal (Δλ, nm) (Potassium glutamate 275 mM): 1.24 nm
Fold Enhancement (Ternary/Binary) (Potassium glutamate 300 mM): 1.23
Ternary Complex Signal (Δλ, nm) (Potassium glutamate 300 mM): 1.50 nm
Binary Complex Signal (Δλ, nm) (Potassium glutamate 300 mM): 1.23 nm
Fold Enhancement (Ternary/Binary) (Potassium glutamate 325 mM): 1.27
Ternary Complex Signal (Δλ, nm) (Potassium glutamate 325 mM): 1.46 nm
Binary Complex Signal (Δλ, nm) (Potassium glutamate 325 mM): 1.15 nm
Fold Enhancement (Ternary/Binary) (Potassium glutamate 350 mM): 1.30
Ternary Complex Signal (Δλ, nm) (Potassium glutamate 350 mM): 1.39 nm
Binary Complex Signal (Δλ, nm) (Potassium glutamate 350 mM): 1.07 nm
Fold Enhancement (Ternary/Binary) (Potassium glutamate 375 mM): 1.32
Ternary Complex Signal (Δλ, nm) (Potassium glutamate 375 mM): 1.36 nm
Binary Complex Signal (Δλ, nm) (Potassium glutamate 375 mM): 1.03 nm
Fold Enhancement (Ternary/Binary) (Potassium glutamate 400 mM): 1.36
Ternary Complex Signal (Δλ, nm) (Potassium glutamate 400 mM): 1.36 nm
Binary Complex Signal (Δλ, nm) (Potassium glutamate 400 mM): 0.99 nm
Fold Enhancement (Ternary/Binary) (Potassium glutamate 425 mM): 1.46
Ternary Complex Signal (Δλ, nm) (Potassium glutamate 425 mM): 1.33 nm
Binary Complex Signal (Δλ, nm) (Potassium glutamate 425 mM): 0.91 nm
Fold Enhancement (Ternary/Binary) (Potassium glutamate 450 mM): 1.52
Ternary Complex Signal (Δλ, nm) (Potassium glutamate 450 mM): 1.31 nm
Binary Complex Signal (Δλ, nm) (Potassium glutamate 450 mM): 0.86 nm
Fold Enhancement (Ternary/Binary) (Potassium glutamate 475 mM): 1.56
Ternary Complex Signal (Δλ, nm) (Potassium glutamate 475 mM): 1.28 nm
Binary Complex Signal (Δλ, nm) (Potassium glutamate 475 mM): 0.82 nm
Fold Enhancement (Ternary/Binary) (Potassium glutamate 500 mM): 1.60
Ternary Complex Signal (Δλ, nm) (Potassium glutamate 500 mM): 1.28 nm
Binary Complex Signal (Δλ, nm) (Potassium glutamate 500 mM): 0.80 nm
SMILES: N[C@@H](CCC(=O)[O-])C(=O)[O-].[K+].[K+] [Potassium Glutamate, potassium glutamate]

SMILES: [Cl-].[Na+] [NaCl]
Fold Enhancement (Ternary/Binary) (NaCl 50 mM): 1.07
Ternary Complex Signal (Δλ, nm) (NaCl 50 mM): 3.33 nm
Binary Complex Signal (Δλ, nm) (NaCl 50 mM): 3.11 nm
Fold Enhancement (Ternary/Binary) (NaCl 75 mM): 1.10
Ternary Complex Signal (Δλ, nm) (NaCl 75 mM): 2.77 nm
Binary Complex Signal (Δλ, nm) (NaCl 75 mM): 2.51 nm
Fold Enhancement (Ternary/Binary) (NaCl 100 mM): 1.07
Ternary Complex Signal (Δλ, nm) (NaCl 100 mM): 2.34 nm
Binary Complex Signal (Δλ, nm) (NaCl 100 mM): 2.17 nm
Fold Enhancement (Ternary/Binary) (NaCl 125 mM): 1.04
Ternary Complex Signal (Δλ, nm) (NaCl 125 mM): 1.99 nm
Binary Complex Signal (Δλ, nm) (NaCl 125 mM): 1.91 nm
Fold Enhancement (Ternary/Binary) (NaCl 150 mM): 1.04
Ternary Complex Signal (Δλ, nm) (NaCl 150 mM): 1.73 nm
Binary Complex Signal (Δλ, nm) (NaCl 150 mM): 1.67 nm
Fold Enhancement (Ternary/Binary) (NaCl 175 mM): 1.11
Ternary Complex Signal (Δλ, nm) (NaCl 175 mM): 1.51 nm
Binary Complex Signal (Δλ, nm) (NaCl 175 mM): 1.36 nm
Fold Enhancement (Ternary/Binary) (NaCl 200 mM): 1.19
Ternary Complex Signal (Δλ, nm) (NaCl 200 mM): 1.36 nm
Binary Complex Signal (Δλ, nm) (NaCl 200 mM): 1.15 nm
Fold Enhancement (Ternary/Binary) (NaCl 225 mM): 1.27
Ternary Complex Signal (Δλ, nm) (NaCl 225 mM): 1.28 nm
Binary Complex Signal (Δλ, nm) (NaCl 225 mM): 1.01 nm
Fold Enhancement (Ternary/Binary) (NaCl 250 mM): 1.47
Ternary Complex Signal (Δλ, nm) (NaCl 250 mM): 1.18 nm
Binary Complex Signal (Δλ, nm) (NaCl 250 mM): 0.80 nm
Fold Enhancement (Ternary/Binary) (NaCl 275 mM): 1.65
Ternary Complex Signal (Δλ, nm) (NaCl 275 mM): 1.11 nm
Binary Complex Signal (Δλ, nm) (NaCl 275 mM): 0.67 nm
Fold Enhancement (Ternary/Binary) (NaCl 300 mM): 1.86
Ternary Complex Signal (Δλ, nm) (NaCl 300 mM): 0.99 nm
Binary Complex Signal (Δλ, nm) (NaCl 300 mM): 0.53 nm
Fold Enhancement (Ternary/Binary) (NaCl 325 mM): 2.76
Ternary Complex Signal (Δλ, nm) (NaCl 325 mM): 0.93 nm
Binary Complex Signal (Δλ, nm) (NaCl 325 mM): 0.34 nm
Fold Enhancement (Ternary/Binary) (NaCl 350 mM): 2.94
Ternary Complex Signal (Δλ, nm) (NaCl 350 mM): 0.74 nm
Binary Complex Signal (Δλ, nm) (NaCl 350 mM): 0.25 nm
Fold Enhancement (Ternary/Binary) (NaCl 375 mM): 3.62
Ternary Complex Signal (Δλ, nm) (NaCl 375 mM): 0.61 nm
Binary Complex Signal (Δλ, nm) (NaCl 375 mM): 0.17 nm
Ternary Complex Signal (Δλ, nm) (NaCl 400 mM): 0.48 nm
Binary Complex Signal (Δλ, nm) (NaCl 400 mM): 0.08 nm
Fold Enhancement (Ternary/Binary) (NaCl 425 mM): 5.16
Ternary Complex Signal (Δλ, nm) (NaCl 425 mM): 0.38 nm
Binary Complex Signal (Δλ, nm) (NaCl 425 mM): 0.07 nm
Fold Enhancement (Ternary/Binary) (NaCl 450 mM): 6.65
Ternary Complex Signal (Δλ, nm) (NaCl 450 mM): 0.26 nm
Binary Complex Signal (Δλ, nm) (NaCl 450 mM): 0.04 nm
Fold Enhancement (Ternary/Binary) (NaCl 475 mM): 10.28
Ternary Complex Signal (Δλ, nm) (NaCl 475 mM): 0.19 nm
Binary Complex Signal (Δλ, nm) (NaCl 475 mM): 0.02 nm
Ternary Complex Signal (Δλ, nm) (NaCl 500 mM): 0.21 nm
Binary Complex Signal (Δλ, nm) (NaCl 500 mM): 0.00 nm
